# Laboratory results reported in patent publication US10272075B2, “Method and composition for treating an alpha adrenoceptor-mediated condition” (Vanda Pharmaceuticals, Inc., priority 2007, dated 2019).
# How the values were obtained:
# [1] = test system: alpha1-adrenoceptors; assay: phenylephrine (PE)-induced contraction in the prostatic smooth muscle of male rabbits (isolated strips, organ bath); set-up: species or system rabbit
# Protocol: (§1) It is well established in the literature that the rabbit is a good model for the pharmacology of the lower urinary tract. In particular, a correlation was found between affinities for cloned alpha1a-adrenoceptors and antagonist potency (pKb) values for several alpha1-adrenoceptors antagonists in the rabbit isolated prostate (Martin et al., J. Pharmacol. Expr. Ther. 282: 228-35, 1997). Briefly, following animal sacrifice, transverse preparations of the prostate were suspended vertically in 25 mL glass organ baths under a loading tension of 1 g and placed in an oxygenated, modified Krebs solution (NaCl 114 mM, KCl 4.7 mM, CaCl2 2.5 mM, KH2PO4 1.2 mM, NaHCO3 25 mM, glucose 11.7 mM (pH 7.4, gassed with 95% O2 and 5% CO2 at 37° C.). Propranolol (1 μM), desipramine (0.1 μM), deoxycorticosterone (3 μM) and normetanephrine (1 μM) were added to the Krebs-Henseleit solution in order to block beta-adrenoceptors, neuronal and extraneuronal uptake and catechol-O-methyl transferase, respectively. After 60 min of equilibration, smooth muscle strips were exposed to 30 μM PE to measure their viability. Strips having low contractile responses (<0.5 g) were discarded. Following a 30 min washout period, a first concentration-response curve (CRC) to PE (in the range 0.1 μM-1 mM) was obtained by cumulative additions as half-log unit concentrations increments. Then, tissues were washed for 60 min and incubated for 60 min with the test substance (at four different concentrations) before a second PE CRC was obtained (in the range 0.1 μM-10 mM). Only one concentration for the test substance was tested on each single smooth muscle strip.
# [2] = test system: T1, alpha1-adrenoceptors; assay: as above; set-up: species or system rabbit; conditions: rabbit isolated prostate, vs PE
# T1 construct: antagonist potency (pA2) estimated by the Schild plot; other: rabbit isolated prostate, vs PE, 0.1-3 uM, 60 min incubat; other: rabbit isolated prostate, vs PE, single concentration 0.01 μ; pKb; other: rabbit isolated prostate
# Protocol: as §1
# [3] = test system: human alpha1-adrenoceptors expressed in the prostatic adenoma; assay: norepinephrine (NE)-induced contraction in prostatic adenoma from BPH patients (isolated strips, organ bath); conditions: for effect on pEC50 of the second CRC to NE: 60 min incubation
# Protocol: Briefly, human prostatic adenoma was obtained from 6 patients (mean age 71±5 years) undergoing transvesical adenomectomy of the prostate because of BPH. Prostatic strips were mounted in glass organ baths containing a modified Krebs-Henseleit solution (NaCl 114 mM, KCl 4.7 mM, CaCl2 2.5 mM, KH2PO4 1.2 mM, NaHCO3 25 mM, glucose 11.7 mM, ascorbic acid 1.1 mM (pH 7.4, gassed with 95% O2 and 5% CO2 at 37° C.) under 1.5 g tension. […] Strips having a contractile response <0.3 g were discarded. After washout and 60 min of re-equilibration to re-establish baseline tension, a first cumulative concentration-response curve to NE (in the range 0.1 μM-1 mM) was constructed until a plateau of contraction was reached. […] Only one concentration of antagonist was tested in a single strip. […] The quantity of DMSO in the organ baths was equal to 0.1%.
# [4] = test system: anesthetized rats; assay: PE-induced increase in intra-urethral pressure (UP) in anesthetized rats, intravenous administration; format: in vivo, rat; conditions: for effect on agonist (PE) effect on UP: PE dose range 10-300 ug/kg
# Protocol: Briefly, catheters were inserted into the femoral vein of anesthetized male rats for drug administration and into the urethra through the bladder wall for measuring urethral pressure (UP). […] The different doses of PE (between 3 and 300 ug/kg in controls and up to 3000 ug/kg in treated animals) were administered intravenously under a volume of 1 mL/kg as a bolus with a 3 minute interval between each dose.
# [5] = test system: anesthetized rats; assay: PE-induced increase in intraurethral pressure (UP) and arterial blood pressure (BP) in anesthetized rats, oral administration; format: in vivo, rat; conditions: for effect on basal BP levels / effect on basal UP: oral; for effect on basal BP levels: 25 and 45 minutes after administration; for effect on basal UP: measured 25 or 45 minutes later; for UP100% value (dose of PE increasing baseline UP by 100%), statistical significance / effect on BP, from BP10% to BP100%: 45 min
# Protocol: An experiment was conducted to evaluate the antagonistic effect of 4-[3-[4-(6-fluoro-1,2,-benzisoxazol-3-yl)-1-piperidinyl]propoxy]-3-methoxy-benzoic acid on the PE-induced increase in intraurethral pressure (UP) and arterial blood pressure (BP) in anesthetized rats.
# [6] = test system: rats; assay: bladder outlet obstruction-induced bladder dysfunction in rats, 1-week treatment; format: in vivo, rat; conditions: for effect on bladder hypertrophy secondary to outlet obstruction / effect on cystometric parameters: 1-week treatment; for effect on cystometric parameters: bladder outlet obstruction rats
# Protocol: In another experiment, the effect of a 1-week treatment with 4-[3-[4-(6-fluoro-1,2,-benzisoxazol-3-yl)-1-piperidinyl]propoxy]-3-methoxy-benzoic acid, tamulosin, and a common vehicle on bladder outlet obstruction-induced bladder dysfunction in rats was evaluated. […] However, this latter effect was exclusively observed at the lowest dose tested (1 mg/kg/day).
# [7] = test system: T1, alpha1-adrenoceptors; conditions: rabbit isolated prostate; cited from earlier work
# [8] = test system: human isolated prostatic adenoma; conditions: human isolated prostatic adenoma obtained from BPH patients; cited from earlier work
# [9] = test system: conscious rats; conditions: i.v.; cited from earlier work
# [10] = test system: rats; conditions: administered intraduodenally; cited from earlier work
# [11] = target: T2, rat alpha1A-adrenoceptor (Rattus norvegicus, UniProt P43140); assay: binding studies, rat alpha1A-adrenoceptor; conditions: data communicated by Dr. Baroldi, Vanda Pharmaceuticals
# T2 sequence (P43140 1-466): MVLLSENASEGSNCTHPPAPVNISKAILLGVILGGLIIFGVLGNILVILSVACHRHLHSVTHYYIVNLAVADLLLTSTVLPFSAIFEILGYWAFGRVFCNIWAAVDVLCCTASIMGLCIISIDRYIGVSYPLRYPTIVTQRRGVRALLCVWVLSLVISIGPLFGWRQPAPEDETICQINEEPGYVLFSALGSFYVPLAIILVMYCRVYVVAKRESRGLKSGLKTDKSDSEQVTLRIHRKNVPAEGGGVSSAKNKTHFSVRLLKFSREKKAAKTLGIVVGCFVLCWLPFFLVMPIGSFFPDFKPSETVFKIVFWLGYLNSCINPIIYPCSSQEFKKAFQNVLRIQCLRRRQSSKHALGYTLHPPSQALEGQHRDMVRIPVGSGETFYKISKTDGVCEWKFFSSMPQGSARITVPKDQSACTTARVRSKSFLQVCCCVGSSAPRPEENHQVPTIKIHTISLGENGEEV
# Excerpt: (§2) The pA2 of 4-[3-[4-(6-fluoro-1,2,-benzisoxazol-3-yl)-1-piperidinyl]propoxy]-3-methoxy-benzoic acid (7.50) is in accordance with the value previously found on the rabbit isolated prostate. […] Importantly, it is recognized that blockade of both alpha1A-and alpha1D-adrenoceptors is necessary for optimal clinical effect on BPH patients (Andersson K E, World J. Urol. 19: 390-96, 2002).
# [12] = target: T3, cloned human alpha1 D-adrenoceptor (Homo sapiens, UniProt P25100); assay: binding studies, cloned human alpha1D-adrenoceptor; conditions: data communicated by Dr. Baroldi, Vanda Pharmaceuticals
# T3 construct: expressed in transfected cells
# T3 sequence (P25100 1-572): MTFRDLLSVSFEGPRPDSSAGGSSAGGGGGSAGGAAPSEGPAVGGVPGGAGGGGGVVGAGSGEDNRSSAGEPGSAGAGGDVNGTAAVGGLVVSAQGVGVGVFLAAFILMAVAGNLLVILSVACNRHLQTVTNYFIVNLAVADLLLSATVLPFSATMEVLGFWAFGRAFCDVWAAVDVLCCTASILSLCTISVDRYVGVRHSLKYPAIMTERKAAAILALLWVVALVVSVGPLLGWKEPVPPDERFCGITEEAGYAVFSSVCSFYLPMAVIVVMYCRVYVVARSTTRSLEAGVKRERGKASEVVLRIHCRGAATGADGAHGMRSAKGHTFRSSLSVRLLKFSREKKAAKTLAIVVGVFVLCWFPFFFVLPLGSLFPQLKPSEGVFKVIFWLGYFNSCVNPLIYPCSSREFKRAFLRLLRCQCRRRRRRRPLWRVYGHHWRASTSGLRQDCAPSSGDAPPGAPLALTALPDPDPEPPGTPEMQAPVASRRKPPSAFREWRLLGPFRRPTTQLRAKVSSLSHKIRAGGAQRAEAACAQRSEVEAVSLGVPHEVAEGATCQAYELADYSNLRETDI
# Excerpt: as §2
# [13] = DMPK studies in rats with [14C]-labelled compound, brain radioactivity; format: in vivo, rat; conditions: rats treated with [14C] compound
# Excerpt: 4-[3-[4-(6-fluoro-1,2,-benzisoxazol-3-yl)-1-piperidinyl]propoxy]-3-methoxy-benzoic acid appears not to cross the blood-brain barrier. Specifically, in DMPK studies using rats treated with [14C] […] Therefore, 4-[3-[4-(6-fluoro-1,2,-benzisoxazol-3-yl)-1-piperidinyl]propoxy]-3-methoxy-benzoic acid is particularly useful in conditions that are not mediated, to a substantial degree, by receptors in the brain.
# [14] = test system: alpha 1 adrenoceptors; assay: receptor affinity/potency profile, alpha 1 adrenoceptors; format: binding
# [15] = target: serotonin 5HT2A receptor (Homo sapiens, UniProt P28223); assay: receptor affinity/potency profile, serotonin 5HT2A receptor; format: binding
# [16] = test system: dopamine, histamine and serotonin receptors (other than 5HT2A); assay: receptor affinity/potency profile, dopamine, histamine and serotonin receptors; format: binding
# Chain of serotonin 5HT2A receptor (P28223 whole entry): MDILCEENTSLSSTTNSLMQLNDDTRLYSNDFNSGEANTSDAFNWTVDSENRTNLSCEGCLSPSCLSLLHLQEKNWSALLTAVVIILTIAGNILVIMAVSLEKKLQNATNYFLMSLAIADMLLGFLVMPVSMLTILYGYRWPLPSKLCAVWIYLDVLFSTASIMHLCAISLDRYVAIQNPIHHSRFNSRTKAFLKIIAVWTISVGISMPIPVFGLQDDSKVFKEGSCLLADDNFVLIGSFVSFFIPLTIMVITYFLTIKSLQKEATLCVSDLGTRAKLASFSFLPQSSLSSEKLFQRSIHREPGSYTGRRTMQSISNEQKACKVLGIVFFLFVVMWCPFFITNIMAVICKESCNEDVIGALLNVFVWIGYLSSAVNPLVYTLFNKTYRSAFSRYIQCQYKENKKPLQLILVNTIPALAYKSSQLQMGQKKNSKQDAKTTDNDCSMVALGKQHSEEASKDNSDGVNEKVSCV
structure (smiles),measurement,setting,value
"CCOc1ccccc1OCCN[C@H](C)Cc1ccc(OC)c(S(N)(=O)=O)c1 [tamsulosin, reference compound]",effect on Emax of PE concentration-response curve,[1],unaffected
same,potency of tamsulosin relative to the test substance (times more potent),"[1]; rabbit preparation, based on similar PE pEC50 values",300 times
same,pA2 calculated from the dose-ratio of pEC50 values,[2]; single concentration 0.01 μM,10.21
same,effect on Emax of NE concentration-response curve,[3],no effect
same,effect on pEC50 of the second CRC to NE,[3],induced a shift
same,effect on agonist (PE) effect on UP,[4]; tamsulosin 10 ug/kg,statistically significant decrease
same,effect on basal BP levels,[5],significantly decreased
same,effect on basal UP,[5],no effect
same,effect on bladder hypertrophy secondary to outlet obstruction,[6],devoid of effect
same,effect on cystometric parameters,[6],completely ineffective
same,pKb,[7],9.74
COc1cc2nc(N(C)CCCNC(=O)C3CCCO3)nc(N)c2cc1OC (centres unmarked) [alfuzosin],pKb,[7],7.25
same,pKb,[8],7.78
same,potency relative to tamsulosin (fold less potent) in decreasing basal urethral pressure,[9],10 fold
C[C@H](Cc1cc2c(c(C(N)=O)c1)N(CCCO)CC2)NCCOc1ccccc1OCC(F)(F)F [silodosin],potency relative to tamsulosin (times less potent) on UP,[10],2.8 times
"COc1cc(C(=O)O)ccc1OCCCN1CCC(c2noc3cc(F)ccc23)CC1 [4-[3-[4-(6-fluoro-1,2,-benzisoxazol-3-yl)-1-piperidinyl]propoxy]-3-methoxy-benzoic acid]",effect on Emax of PE concentration-response curve,[1],unaffected
same,effect on PE-induced contractions,"[1]; n=6 for each dose, 0.1-3 uM",concentration-dependently antagonized
same,antagonist potency (pA2) estimated by the Schild plot,"[2]; 0.1-3 uM, 60 min incubation",7.47
same,effect on Emax of NE concentration-response curve,[3],no effect
same,effect on pEC50 of the second CRC to NE,[3],concentration-dependent shift
same,potency relative to tamsulosin (times less potent),[3]; human alpha1-adrenoceptors in prostatic adenoma,approximately 100 times
same,pA2 estimated by the Schild Plot,"[3]; human prostatic adenoma, vs NE, dose-ratios corrected by solvent group",7.50
same,IC50,[11],11.5 nM
same,IC50,[12],17.8 nM
same,effect on delta UP (over baseline) induced by PE,"[4]; 10 ug/kg i.v., PE 100 ug/kg",statistically significant inhibitory effect
same,effect on delta UP (over baseline) induced by PE,"[4]; 33.3 ug/kg i.v., PE 30-100 and 150 ug/kg",statistically significant inhibitory effect
same,dose response curve to PE (urethral pressure),"[4]; 10, 33.3 and 100 ug/kg i.v.",dose-dependently shifted to the right
same,potency relative to tamsulosin (times less potent),"[4]; intravenous route, anesthetized rats",approximately 10 times
same,effect on agonist (PE) effect on UP,[4]; test substance 100 ug/kg i.v.,statistically significant decrease
same,effect on PE-induced increase of basal UP,[5]; 0.5 mg/kg p.o.,ineffective
same,effect on PE-induced increase of basal UP,[5]; 1.5 mg/kg p.o.,slight effect
same,"UP100% value (dose of PE increasing baseline UP by 100%), statistical significance",[5]; 1.5 mg/kg p.o.,reached the level of statistical significance
same,"effect on BP, from BP10% to BP100%",[5]; 1.5 mg/kg p.o.,significant
same,effect on PE-induced increase of basal UP,[5]; 4.5 mg/kg p.o.,slight effect
same,"UP100% value (dose of PE increasing baseline UP by 100%), statistical significance",[5]; 4.5 mg/kg p.o.,not
same,"effect on BP, from BP10% to BP100%",[5]; 4.5 mg/kg p.o.,no effect
same,potency relative to tamsulosin (times less potent) on both UP and BP,"[5]; oral route, 1.5 mg/kg at 45 min equipotent with 0.3 mg/kg tamsulosin",about 5 times
same,effect on basal BP levels,[5],significantly decreased
same,effect on basal UP,[5],no effect
same,effect on bladder hypertrophy secondary to outlet obstruction,[6],devoid of effect
same,effect on cystometric parameters,[6],devoid of significant effect
same,effect on amplitude of unstable contractions,[6]; exclusively at the lowest dose tested (1 mg/kg/day),significantly decreased
same,radioactivity concentrations in the brain (blood-brain barrier crossing),[13],none of the animals had measurable radioactivity concentrations in the brain
same,affinity/potency for alpha 1 adrenoceptors compared with alpha 2 adrenoreceptors,[14],slightly greater affinity/potency
same,affinity and potency among receptors,[14]; alpha 1 adrenoceptors,greatest affinity and is most potent
same,affinity and potency among receptors,[15],greatest affinity and is most potent
same,"activity with respect to the dopamine, histamine and serotonin receptors (other than 5HT2A)",[16],very weak if any activity
